Data published in patent EP0799188B1, “AMIDES OF MONO AND DICARBOXYLIC ACIDS WITH GLYCOSAMINES, SELECTIVELY ACTIVE ON THE CANNABINOID PERIPHERAL RECEPTOR” (LIFEGROUP S.p.A., priority 1994, dated 1996).
Where “and” joins values, the source holds several entries; their conditions need not be identical. Equal values may be shown once. Read-outs that look alike come from different tables or passages of the source.

Columns and labels:
[1] = target: T1, CB2 receptor (Rattus norvegicus, UniProt Q9QZN9); test: 3H-WIN 55,212-2 binding displacement on RBL-2H3 cell membranes; conditions: for IC50: RBL-2H3 cell membranes, 1% DMSO, means ± SEM
T1 construct: 30 µg membrane proteins prepared in item a); endogenous in cells; host or cells: RBL-2H3 cells (plasma membrane preparation)
T1 sequence (Q9QZN9 1-360): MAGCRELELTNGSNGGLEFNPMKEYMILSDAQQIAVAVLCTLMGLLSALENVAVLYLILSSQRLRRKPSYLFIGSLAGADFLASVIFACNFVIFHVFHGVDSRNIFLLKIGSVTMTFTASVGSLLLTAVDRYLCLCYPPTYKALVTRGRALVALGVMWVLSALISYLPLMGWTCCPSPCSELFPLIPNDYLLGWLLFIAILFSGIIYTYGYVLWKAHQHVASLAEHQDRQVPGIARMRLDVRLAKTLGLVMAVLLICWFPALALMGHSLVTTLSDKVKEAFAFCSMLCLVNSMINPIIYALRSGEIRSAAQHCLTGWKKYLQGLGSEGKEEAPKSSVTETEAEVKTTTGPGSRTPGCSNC

[2] = system: RBL-2H3 cells; test: 3H-serotonin release induced by ADNP/DNP.HSA immunogenic stimulation; format: cell-based, rat; conditions: for effect on serotonin release (RBL cells immunogenic activation): statement in words on Table 3; for inhibition at 100 µM / EC50 / inhibition at 60 µM / inhibition at 10 µM: Rattus norvegicus; for inhibition at 10 µM: RBL-2H3, 10µM, read-out: 3H-serotonin net release inhibition (%)
[3] = solubility in organic solvents; format: physicochemical; conditions: organic solvent or mixture, read-out: solubility in org. sol.
[4] = water solubility
[5] = competitor 10 µM, amides in 0.1% DMSO, Anandamide and Nabilone in 0.1% ethanol
[6] = RBL-2H3, concentration inhibiting by 50% the net release of 3H serotonin, 0.2% DMSO, 15 minutes release period, means ± SEM, read-out: EC50
[7] = RBL-2H3, concentration inhibiting by 50% the net release of 3H serotonin, 1% DMSO, 15 minutes release period, means ± SEM, read-out: EC50

## C=C(C)[C@@H]1CCC(C)=C[C@H]1c1c(O)cc(CCCCC)cc1O [Cannabidiol, reference compound]
[1]; IC50 (nM)
  IC50: > 1000 nM

## CCCCCCCCCCCCCCCC(=O)N[C@@H](CO)C(=O)O [Example 1, N-palmitoyl-L-serine]
[2]; 100µM, 0.1% DMSO and 0.1% ethanol
  3H-serotonin net release (%): 0%
[2]
  effect on serotonin release (RBL cells immunogenic activation): can inhibit the effects induced by mast cell activation
[1]; read-out: IC50
  IC50: 0.04 nM and 0.05 nM
[1]; [5]
  Displacement (%): 100%
[3]; in DMSO
  solubility: > 10000 µg/mL
[3]; in ethanol
  solubility: > 10000 µg/mL
[4]
  water solubility: slightly soluble

## CCCCCCCCCCCC(=O)N[C@@H](CO)C(=O)O [Example 2, N-lauroyl-L-serine]
[2]; RBL-2H3, DMSO 0.2%, 100µM
  inhibition at 100 µM: 79%
[2]; RBL-2H3, DMSO 1%, 100µM
  inhibition at 100 µM: 61%
[3]; in DMSO
  solubility: > 10000 µg/mL
[3]; in ethanol
  solubility: > 10000 µg/mL
[4]
  water solubility: slightly soluble
[4]; water
  solubility: > 10000 µg/mL

## CCCCCCCC/C=C\CCCCCCCC(=O)N[C@@H](CO)C(=O)O [Example 3, N-oleoyl-L-serine]
[3]; in DMSO
  solubility: > 10000 µg/mL
[4]
  water solubility: slightly soluble

## CCCCCCCCCCCC(=O)N[C@@H](CO)C(=O)OC [Example 5, N-lauroyl-L-serine methylester]
[2]; RBL-2H3, DMSO 1%, 100µM
  inhibition at 100 µM: 61%
[2]; [6]
  EC50: 104 ± 59 µM
[3]; in DMSO
  solubility: > 10000 µg/mL
[3]; in ethanol
  solubility: > 10000 µg/mL
[4]
  water solubility: slightly soluble

## CCCCCCCCCCCCCCCC(=O)N[C@@H](CS)C(=O)O [Example 6, N-palmitoyl-L-cysteine]
[2]; RBL-2H3, DMSO 0.2%
  inhibition at 60 µM: 50%
[2]; RBL-2H3, DMSO 1%, 100µM
  inhibition at 100 µM: 91%
[2]; [7]
  EC50: 29 ± 12 µM
[3]; in DMSO
  solubility: > 10000 µg/mL
[4]
  water solubility: slightly soluble

## CCCCCCCCCCCCCCCC(=O)NCC(=O)O [Example 7, N-palmitoyl-glycine]
[2]; 10µM, 0.1% DMSO and 0.1% ethanol
  3H-serotonin net release (%): 27%
[2]; + anandamide (12.5 µM)
  inhibition at 10 µM: 24%
[2]; -anandamide
  inhibition at 10 µM: 73%
[2]; RBL-2H3, DMSO 0.2%
  inhibition at 60 µM: 85%
[2]; RBL-2H3, DMSO 1%, 100µM
  inhibition at 100 µM: 100%
[2]; RBL-2H3, inhibition of 3H-serotonin release, +anandamide (12.5 µM), read-out: ED50 (the source's name)
  EC50: > 100 µM
[2]; RBL-2H3, inhibition of 3H-serotonin release, -anandamide, read-out: ED50 (the source's name)
  EC50: 4.8 µM
[2]; RBL-2H3, inhibition of serotonin release, 0.1% DMSO and 0.1% ethanol, read-out: ED50 (µm)
  EC50: 4.8 µM
[2]
  effect on serotonin release (RBL cells immunogenic activation): can inhibit the effects induced by mast cell activation
[1]; [5]
  Displacement (%): 79%
  Specific binding: 297
[3]; in DMSO
  solubility: > 10000 µg/mL
[4]
  water solubility: slightly soluble

## CCCCCCCCCCCC(=O)NCC(=O)O [Example 8, N-lauroyl-glycine]
[2]; RBL-2H3, DMSO 0.2%, 100µM
  inhibition at 100 µM: 93%
[2]; RBL-2H3, DMSO 1%, 100µM
  inhibition at 100 µM: 100%
[2]; [6]
  EC50: 10 ± 1.5 µM
[2]; [7]
  EC50: 7 ± 5 µM
[3]; in DMSO
  solubility: > 10000 µg/mL
[3]; in ethanol
  solubility: > 10000 µg/mL
[4]
  water solubility: slightly soluble
[4]; phosphate buffer, pH 7.4, aqueous buffer
  solubility: > 10000 µg/mL

## CCCCCCCCCCCC(=O)NCC(=O)OC [Example 9, N-lauroyl-glycine methylester]
[2]; RBL-2H3, DMSO 0.2%, 100µM
  inhibition at 100 µM: 55%
[3]; in DMSO
  solubility: > 10000 µg/mL
[3]; in ethanol
  solubility: > 10000 µg/mL
[4]
  water solubility: slightly soluble

## CCCCCCCCCCCCCCCC(=O)NCCC(=O)O [Example 10, N-palmitoyl-β-alanine]
[2]; RBL-2H3, DMSO 0.2%, 100µM
  inhibition at 100 µM: 47%
[2]; [7]
  EC50: 30 µM
[3]; in DMSO
  solubility: > 5000 µg/mL
[3]; in ethanol
  solubility: > 5000 µg/mL
[4]
  water solubility: slightly soluble

## CCCCCCCCCCCCCCCC(=O)NCCCC(=O)O [Example 11, N-palmitoyl-gamma-aminobutyric acid]
[2]; [6]
  EC50: 26 ± 18 µM
[3]; in DMSO
  solubility: > 5000 µg/mL
[3]; in ethanol
  solubility: > 5000 µg/mL
[4]
  water solubility: slightly soluble

## O=C(CCCCCCCC(=O)NC(CO)C(=O)O)NC(CO)C(=O)O (stereo not shown) [Example 12, N,N' -bis-(1-carboxy-2-hydroxyethyl)-nonandiamide]
[3]; in DMSO
  solubility: > 10000 µg/mL
[3]; in ethanol
  solubility: > 10000 µg/mL
[4]
  water solubility: slightly soluble
[4]; water
  solubility: > 10000 µg/mL
